Assay results taken from PMC9413440, “An Iterative Approach Guides Discovery of the FabI Inhibitor Fabimycin, a Late-Stage Antibiotic Candidate with In Vivo Efficacy against Drug-Resistant Gram-Negative Infections” (ACS Central Science, 2022).
≈ marks a conversion by molar mass, not a printed value.

Columns and labels:
A. baumannii FabI = A. baumannii FabI (Acinetobacter baumannii, UniProt D0CAD5); assay: In vitro FabI enzymatic inhibition assay; type: biochemical; details: AbFabI; Morrison's quadratic fit; 5 nM enzyme; read-out: Ki app
Method: (§1) supplemented with 100 µg/mL ampicillin at 37°C until OD600 reached 0.6-0.7. The cells were induced with 1mM IPTG and incubated for 20 hours at 18°C and spun down at 8000 rpm for 15 minutes. Cell pellet was resuspended in the lysis buffer (50 mM Tris-HCl pH 8.0, 500 mM Na Cl, 20 mM imidazole, 10% glycerol, 0.5 mM TCEP, protease inhibitor and Lysonase) and passed through microfluidizer followed by centrifugation and filtration to remove cell debris. The clarified lysate was supplemented with 20 mM imidazole and passed over a HisTrap column (Cytiva) pre-equilibrated with the wash buffer (50 mM Tris-HCl pH 8.0, 500 mM NaCl, 20 mM imidazole, 10% glycerol, 0.5 mM TCEP). The column was washed with the wash buffer and eluted over a 20-500 mM imidazole gradient. The appropriate fractions were pooled, and the histidine tag was removed by TEV cleavage. The protein mixture was passed over a HisTrap column to separate the cleaved protein from the uncleaved ones. The cleaved protein was pooled and passed over an S75 size exclusion column (GE LifeSciences) pre-equilibrated with 50 mM Tris-HCl pH 8.0, 500 mM NaCl, 0.5 mM TCEP and 10% glycerol. Fractions containing pure protein were pooled, concentrated at 10 mg/mL and stored at -80°C. […]
(§2) In vitro FabI enzymatic inhibition assay
(§3) Recombinant E. coli and A. baummani FabI enzymes were used in a continuous NADH absorbance assay (20 µL in 384w format). Compounds and the Crotonyl-CoA substrate (Sigma–Aldrich 28007) were dispensed into a plate (GeinerBio-One 781101). The reaction was initiated by the addition of a reaction master mix solution containing enzyme and NADH (Sigma–Aldrich N8129) suspended in reaction buffer (50 mM HEPES pH 7.4, 150 mM NaCl, 1 mM EDTA, 0.01 mg/mL BSA, 0.01% Tween). Final concentrations were 5 nM enzyme, 150 μM Crotonyl-CoA, 380 μM NADH, 0.05% DMSO in 1x reaction buffer. After shaking for 5 seconds the reaction was monitored at NADH absorbance (340nm, 25°C) using a Molecular Devices SpectraMax M5 microplate reader. The linear portion of the progress curve was fit using plate-reader software. Percentage activity was calculated relative to DMSO only and no-substrate controls in each plate and the data were fit to Morrison’s quadratic using Graphpad Prism 9.3 to obtain apparent inhibition constant (Ki app) values. […]
(§4) 480 Real-Time PCR System as a function of a temperature ramp (25-95°C; 0.1°/s) and the Tm was calculated using the […]

E. coli FabI = molecular target: T1, E. coli FabI (Escherichia coli, UniProt P0AEK4); assay: In vitro FabI enzymatic inhibition assay; type: biochemical; details: for Ki: EcFabI, Morrison's quadratic fit, 5 nM enzyme, read-out: Ki app
T1 construct: His(6) with TEV site (cleaved yes); made in house; host or cells: E. coli BL21(DE3)
Method: as §1, §2, §3, §4

A. baumannii AR-0313 = assay: MIC, broth microdilution (CLSI); type: cell-based; details: Acinetobacter baumannii, AR0313; A. baumannii AR-0313 clinical isolate; † = dose-independent trailing growth
Method: (§5) II. Materials and Methods for Biological Experiments
(§6) S. aureus ATCC 29213 and E. coli MG1655 were obtained from the American Type Culture Collection (ATCC). E. coli BW25113 and E. coli JW5503 were obtained from the Keio Collection. AR-bank strains were obtained from the Centers for Disease Control and Prevention and FDA Antibiotic Resistance Isolate Bank.
(§7) Antimicrobial susceptibility tests
(§8) Susceptibility testing was performed in biological triplicate, unless noted otherwise, using the micro-dilution broth method as outlined by the Clinical and Laboratory Standards Institute. Bacteria were cultured with cation-adjusted Mueller Hinton broth (Sigma Aldrich, catalogue number: 90922). […]
(§9) Error bars represent the standard error of the mean of three biological replicates. All compounds evaluated in biological assays were ≥95% pure.

K. pneumoniae AR-0113 = assay: MIC, broth microdilution (CLSI); type: cell-based; details: Klebsiella pneumoniae, AR0113; K. pneumoniae AR-0113 clinical isolate
Method: as §5, §6, §7, §8, §9

E. coli ΔtolC (JW5503) = assay: MIC, broth microdilution (CLSI); type: cell-based, Escherichia coli
Method: as §5, §6, §7, §8
(§10) NH3: m/z 391.2 → 171.0. Fabimycin: m/z 405.3 → 145.3. Power analysis was not used to determine the number of replicates. Error bars represent the standard error of the mean of three biological replicates. All compounds evaluated in biological assays were ≥95% pure.

S. aureus ATCC 29213 = assay: MIC, broth microdilution (CLSI); type: cell-based; details: Staphylococcus aureus, ATCC29213; S. aureus 29213
Method: as §5, §6, §7, §8, §10

A. baumannii AR-0299 = assay: MIC, broth microdilution (CLSI); type: cell-based; details: Acinetobacter baumannii, AR0299; A. baumannii AR-0299 clinical isolate; † = dose-independent trailing growth
Method: as §5, §6, §7, §8, §10

K. pneumoniae BAA-2472 = assay: MIC, broth microdilution (CLSI); type: cell-based; details: Klebsiella pneumoniae, BAA2472
Method: as §5, §6, §7, §8, §10

E. coli AR-0085 = assay: MIC, broth microdilution (CLSI); type: cell-based; details: Escherichia coli, AR0085; E. coli AR-0085 clinical isolate
Method: as §5, §6, §7, §8, §10

A. baumannii AR-0273 = assay: MIC, broth microdilution (CLSI); type: cell-based; details: Acinetobacter baumannii, AR0273; A. baumannii AR-0273 clinical isolate
Method: as §5, §6, §7, §8, §10

K. pneumoniae AR-0066 = assay: MIC, broth microdilution (CLSI); type: cell-based; details: Klebsiella pneumoniae, AR0066; K. pneumoniae AR-0066 clinical isolate
Method: as §5, §6, §7, §8, §10

A. baumannii AR-0033 = assay: MIC, broth microdilution (CLSI); type: cell-based; details: Acinetobacter baumannii, AR0033; A. baumannii AR-0033 clinical isolate; † = dose-independent trailing growth
Method: as §5, §6, §7, §8, §10

E. coli AR-0048 = assay: MIC, broth microdilution (CLSI); type: cell-based; details: Escherichia coli, AR0048; E. coli AR-0048 clinical isolate
Method: as §5, §6, §7, §8, §10

E. coli MG1655 = assay: MIC, broth microdilution (CLSI); type: cell-based; details: Escherichia coli
Method: as §5, §6, §7, §8, §10

K. pneumoniae AR-0560 = assay: MIC, broth microdilution (CLSI); type: cell-based; details: Klebsiella pneumoniae, AR0560; K. pneumoniae AR-0560 clinical isolate
Method: as §5, §6, §7, §8, §10

A. baumannii FabI, sequence (D0CAD5 entry or part of it): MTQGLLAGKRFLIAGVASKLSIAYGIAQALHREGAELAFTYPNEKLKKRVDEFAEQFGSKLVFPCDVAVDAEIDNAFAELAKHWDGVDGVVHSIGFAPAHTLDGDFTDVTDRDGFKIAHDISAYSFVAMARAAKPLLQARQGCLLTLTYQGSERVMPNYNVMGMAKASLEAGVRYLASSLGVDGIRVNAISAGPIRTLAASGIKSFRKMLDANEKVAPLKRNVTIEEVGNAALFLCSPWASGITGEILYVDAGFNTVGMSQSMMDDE
T1 sequence (P0AEK4 whole entry): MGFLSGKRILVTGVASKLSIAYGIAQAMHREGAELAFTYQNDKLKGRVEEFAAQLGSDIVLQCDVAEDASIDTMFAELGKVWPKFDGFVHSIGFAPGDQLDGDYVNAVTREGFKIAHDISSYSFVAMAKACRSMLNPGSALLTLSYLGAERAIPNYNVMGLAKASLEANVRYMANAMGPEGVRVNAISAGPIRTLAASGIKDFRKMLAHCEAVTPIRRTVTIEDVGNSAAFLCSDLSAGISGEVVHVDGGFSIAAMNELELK

SMILES | Ki (A. baumannii FabI) [nM] | Ki (E. coli FabI) [nM] | MIC (A. baumannii AR-0313) [µg/mL] | MIC (K. pneumoniae AR-0113) [µg/mL] | MIC (E. coli ΔtolC (JW5503); Escherichia coli) [µg/mL] | MIC (S. aureus ATCC 29213) [µg/mL] | MIC (A. baumannii AR-0299) [µg/mL] | MIC (K. pneumoniae BAA-2472) [µg/mL] | MIC (E. coli AR-0085) [µg/mL] | MIC (A. baumannii AR-0273) [µg/mL] | MIC (K. pneumoniae AR-0066) [µg/mL] | MIC (A. baumannii AR-0033) [µg/mL] | MIC (E. coli AR-0048) [µg/mL] | MIC (E. coli MG1655) [µg/mL] | MIC (K. pneumoniae AR-0560) [µg/mL] | difference in potency between fabimycin and (R)-7 against purified E. coli FabI (E. coli FabI; fabimycin relative to (R)-7) [fold] | MIC (E. coli ΔtolC (JW5503); E. coli ΔtolC = JW5503, efflux-deficient) [µg/mL]
Cc1c(CN(C)C(=O)/C=C/c2cnc3c(c2)CC[C@@H](N)C(=O)N3)oc2ccccc12 [(R)-7] | 109 ± 14 | 38 ± 4 | > 128 | > 128 | 0.5 (≈ 1.24 µM) | 0.125 (≈ 0.309 µM) | > 128 | > 128 | 128 (≈ 316 µM) | > 128 | > 128 | > 128 | 128 (≈ 316 µM) | 64 (≈ 158 µM) | > 128 |  | 
Cc1c(CN(C)C(=O)/C=C/c2cnc3c(c2)CCCC(=O)N3)oc2ccccc12 [compound 10] | 487 ± 101 | 131 ± 22 | 16 (≈ 41.1 µM) | 32 (≈ 82.2 µM) | 0.031 (≈ 0.0796 µM) | 0.002 (≈ 0.00514 µM) | 16 (≈ 41.1 µM) | 16 (≈ 41.1 µM) | 8 (≈ 20.5 µM) | 16 (≈ 41.1 µM) | 32 (≈ 82.2 µM) | 16 (≈ 41.1 µM) | 8 (≈ 20.5 µM) | 8 (≈ 20.5 µM) | > 32 |  | 
Cc1c(CN(C)C(=O)/C=C/c2cnc3c(c2)CC[C@H](N)C(=O)N3)oc2ccccc12 [fabimycin] | 17 ± 3 | 8 ± 2 | 4 (≈ 9.89 µM) | 4 (≈ 9.89 µM) |  | 0.004 (≈ 0.00989 µM) | 2 (≈ 4.94 µM) | 4 (≈ 9.89 µM) | 1 (≈ 2.47 µM) | 4 (≈ 9.89 µM) | 4 (≈ 9.89 µM) | 4 (≈ 9.89 µM) | 2 (≈ 4.94 µM) | 2 (≈ 4.94 µM) | 4 (≈ 9.89 µM) | 4.75 | 0.016 (≈ 0.0396 µM)
